Experimental data reported in ChEMBL document CHEMBL1201862, “PubChem BioAssay data set” (2004).
Calls of active or inactive are those of the source.

Columns and labels:
HEK293 = test: membrane integrity loss in HEK cells – cell-based, fluorescence, cytotoxicity control for IDE activator project, dose response (AID 588440); assay type: functional; conditions: Homo sapiens;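 also: cytotoxicity by LDH release measuring loss of membrane integrity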
Protein RecA = target: T1, Protein RecA (Mycobacterium tuberculosis, UniProt P9WHJ3); test: Fluorescence Cell-Free Homogeneous Dose Retest to Identify Inhibitors of RecA-Intein Splicing Activity. [Related pubchem assays (depositor defined):AID2097, AID2223, AID489010, AID492950]; assay type: functional
T1 sequence (P9WHJ3 whole entry): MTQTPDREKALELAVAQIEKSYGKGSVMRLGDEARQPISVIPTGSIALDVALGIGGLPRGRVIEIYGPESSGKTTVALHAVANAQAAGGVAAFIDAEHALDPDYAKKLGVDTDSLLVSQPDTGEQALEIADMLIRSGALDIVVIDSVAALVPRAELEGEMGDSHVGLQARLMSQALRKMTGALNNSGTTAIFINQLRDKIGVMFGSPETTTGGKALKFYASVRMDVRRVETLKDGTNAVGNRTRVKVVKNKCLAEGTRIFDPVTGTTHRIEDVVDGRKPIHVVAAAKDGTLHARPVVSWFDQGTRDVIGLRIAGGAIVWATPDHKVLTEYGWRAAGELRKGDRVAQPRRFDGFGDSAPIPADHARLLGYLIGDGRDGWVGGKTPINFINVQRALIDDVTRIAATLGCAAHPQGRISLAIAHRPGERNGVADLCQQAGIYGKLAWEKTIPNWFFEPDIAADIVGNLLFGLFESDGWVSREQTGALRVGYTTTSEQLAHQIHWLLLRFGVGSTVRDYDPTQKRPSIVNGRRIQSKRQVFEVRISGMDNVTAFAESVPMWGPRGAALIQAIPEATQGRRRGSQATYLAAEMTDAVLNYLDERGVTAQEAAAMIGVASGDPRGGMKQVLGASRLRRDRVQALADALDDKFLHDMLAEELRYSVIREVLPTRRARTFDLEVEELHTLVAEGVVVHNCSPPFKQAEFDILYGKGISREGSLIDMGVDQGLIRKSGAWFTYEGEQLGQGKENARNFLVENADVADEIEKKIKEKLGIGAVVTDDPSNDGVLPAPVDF

[1] = target: T2, Tyrosine-protein phosphatase non-receptor type 22 (Homo sapiens, UniProt Q9Y2R2); test: lymphoid phosphatase LYP inhibitors – biochemical, selectivity assay for STEP inhibitor project, dose response (AID 624241); assay type: functional
T2 sequence (Q9Y2R2 whole entry): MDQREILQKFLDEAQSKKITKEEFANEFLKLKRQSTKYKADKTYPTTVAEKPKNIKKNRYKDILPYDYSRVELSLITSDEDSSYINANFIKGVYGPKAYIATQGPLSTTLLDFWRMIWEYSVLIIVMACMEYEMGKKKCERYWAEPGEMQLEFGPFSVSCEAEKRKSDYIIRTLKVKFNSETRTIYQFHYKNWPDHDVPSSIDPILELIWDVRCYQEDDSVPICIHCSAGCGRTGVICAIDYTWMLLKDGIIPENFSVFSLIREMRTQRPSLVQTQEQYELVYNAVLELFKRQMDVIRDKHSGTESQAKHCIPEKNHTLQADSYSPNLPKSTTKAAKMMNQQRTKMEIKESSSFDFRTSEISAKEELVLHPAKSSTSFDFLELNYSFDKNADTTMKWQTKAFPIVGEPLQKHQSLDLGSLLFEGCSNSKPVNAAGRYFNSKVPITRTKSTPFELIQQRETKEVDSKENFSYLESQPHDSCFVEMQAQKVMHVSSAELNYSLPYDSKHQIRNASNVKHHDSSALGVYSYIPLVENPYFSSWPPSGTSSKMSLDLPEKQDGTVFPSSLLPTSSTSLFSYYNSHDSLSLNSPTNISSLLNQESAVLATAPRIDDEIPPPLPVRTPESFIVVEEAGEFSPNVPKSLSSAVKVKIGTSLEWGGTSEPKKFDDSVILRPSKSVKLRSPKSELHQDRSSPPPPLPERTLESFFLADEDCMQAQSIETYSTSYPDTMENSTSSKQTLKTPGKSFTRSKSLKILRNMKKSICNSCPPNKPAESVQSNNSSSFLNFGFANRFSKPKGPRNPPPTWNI

[2] = target: T3, Tyrosine-protein phosphatase non-receptor type 5 (Homo sapiens, UniProt P54829); test: PTPN5 enzyme inhibition – biochemical, fluorescence intensity, uHTS hits, confirmation (AID 602372); assay type: functional; conditions: read-out: IC50_Mean
T3 sequence (P54829 whole entry): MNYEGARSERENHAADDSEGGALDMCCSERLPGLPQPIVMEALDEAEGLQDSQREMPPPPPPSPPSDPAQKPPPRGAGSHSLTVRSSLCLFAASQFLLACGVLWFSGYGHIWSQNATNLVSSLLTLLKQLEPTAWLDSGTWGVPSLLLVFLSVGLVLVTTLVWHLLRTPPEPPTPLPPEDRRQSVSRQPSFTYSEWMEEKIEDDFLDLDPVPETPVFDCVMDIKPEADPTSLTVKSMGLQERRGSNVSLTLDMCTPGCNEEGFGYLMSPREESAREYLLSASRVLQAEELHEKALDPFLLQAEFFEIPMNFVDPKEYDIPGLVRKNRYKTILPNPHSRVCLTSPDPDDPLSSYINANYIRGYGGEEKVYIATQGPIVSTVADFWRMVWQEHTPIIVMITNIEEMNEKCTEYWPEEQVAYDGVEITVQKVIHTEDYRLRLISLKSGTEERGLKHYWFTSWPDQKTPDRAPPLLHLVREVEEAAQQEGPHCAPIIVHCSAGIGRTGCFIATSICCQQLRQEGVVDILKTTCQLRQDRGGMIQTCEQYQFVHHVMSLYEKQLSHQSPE

[3] = target: Dual specificity protein phosphatase 3 (Homo sapiens, UniProt P51452); test: VHR1 phosphatase inhibitors, primary screen, biochemical, absorbance, uHTS (AID 1654)
Chain of Dual specificity protein phosphatase 3 (P51452 whole entry): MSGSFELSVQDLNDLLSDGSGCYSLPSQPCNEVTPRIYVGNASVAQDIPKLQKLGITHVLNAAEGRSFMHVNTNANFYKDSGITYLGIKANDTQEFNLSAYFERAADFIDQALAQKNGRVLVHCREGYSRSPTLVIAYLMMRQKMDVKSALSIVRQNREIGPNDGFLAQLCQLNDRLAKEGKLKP

Q: How did the IC50 (HEK293) turn out when O=c1oc2c(O)cccc2cc1-c1nc2ccccc2[nH]1 was run?
A: The IC50 was > 89.3 µM (inactive).

Q: For CCOC(=O)c1ccc(Nc2cc3ccccc3c(O)n2)cc1, which EC50 (Protein RecA) is on record?
A: Its EC50 is 9.12 µM (active).

Q: Which results are given for CCOC(=O)c1sc2nc3c(SCC(=O)O)cc(C(=O)c4ccccc4O)cn3c(=O)c2c1C?
A: IC50 [1]: 1.16 µM (active); IC50 [2]: 2.18 µM (active); IC50 [3]: 4.64 µM (active)
